Series [1] has as its target T1, IP6KA^wt (Entamoeba histolytica, UniProt N9UNA8).
T1 sequence (N9UNA8 1-270): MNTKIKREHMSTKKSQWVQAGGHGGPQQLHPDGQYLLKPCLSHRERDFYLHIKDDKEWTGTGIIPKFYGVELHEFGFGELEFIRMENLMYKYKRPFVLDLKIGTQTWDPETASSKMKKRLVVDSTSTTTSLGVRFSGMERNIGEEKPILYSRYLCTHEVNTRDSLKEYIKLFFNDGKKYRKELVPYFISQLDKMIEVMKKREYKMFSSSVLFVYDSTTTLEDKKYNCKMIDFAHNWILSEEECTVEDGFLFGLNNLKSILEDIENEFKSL
Kind of series: NMR activity assay for EhIP6KA constructs. Format: biochemical. The method, then: The NMR assay for EhIP6KA activity was performed similarly as described before ([Harmel et al., 2019]) with slight alterations. Enzyme assays were performed in D2O in a total volume of 150 µl containing 20 mM MES pH* 6.4, 50 mM NaCl, 6 mM MgCl2, 1 mM ATP, 0.2 mg/ml BSA, 1 mM DTT, 5 mM creatine phosphate, and 1 U/ml creatine kinase (ATP-regenerating system) and 50 nM kinase if not otherwise stated. MES, NaCl, and BSA were prepared as buffer A and DTT and creatine phosphate as buffer B in D2O and were adjusted to pH* 6.4, respectively. If applicable, inhibitor was added as a DMSO-d6 stock in a twofold dilution series at a final DMSO concentration of 1% if not otherwise mentioned. Otherwise, DMSO-d6 was added to the same percentage. The samples were equilibrated at 37°C for 3 min and the reaction initiated by adding 100 µM [^13C6]-InsP6. The reaction was quenched with 400 µl quenching solution (20 mM EDTA pD 6.0, 68.75 mM NaCl) and transferred into an NMR tube before being measured on a Bruker […] 600 PLUS with an NMR pulse program developed previously ([Harmel et al., 2019]).

Series [2] relates to HEK293. Kind of series: Cytotoxicity, cell survival after 72 hr incubation. Type of series: cell-based. As to conditions: HEK293, 10 µM. The method, then:
(§1) Supplementary file elife-88982-supp2.xlsx: Supplementary file 2. Cytotoxicity of selected hits indicated by cell survival after 72 hr incubation at 10 µM concentration. All compounds were measured in independent triplicates and errors represent standard deviation. Redox activity of selected compounds measured via a photometric surrogate assay. Reactions contained 50 mM HEPES pH 7.5, 50 mM NaCl, 200 mM DTT, and 20 µM resazurin, and were incubated for 1 hr at 37°C.

The test system of series [3] is HepG2. The experiment in a line: Cytotoxicity, cell survival after 72 hr incubation. Format: cell-based. As to conditions: HepG2, 10 µM. The protocol: as §1
Series [4] concerns HCT116 cells. The experiment in a line: Reverse transcription qPCR of 45S pre-rRNA transcript levels. Type of series: cell-based. The conditions noted are these: HCT116 cells treated 5 hr, RT-qPCR, preliminary experiment. The protocol:
Total RNA was extracted using the RNeasy kit from QIAGEN. cDNA was generated using Thermo Fisher Scientific SuperScript III Reverse Transcriptase and 2 µg RNA following the vendor’s protocol. […] The cDNA was diluted 10-fold before conducting qPCR using SYBR Green PCR Master Mix and a StepOnePlus RT PCR System. The difference in transcript levels was calculated using the ΔΔct method and technical triplicates.
On the technique in general: Real-time PCR tracks product formation cycle by cycle.

These results are taken from PMC10578927, “An unconventional gatekeeper mutation sensitizes inositol hexakisphosphate kinases to an allosteric inhibitor” (eLife, 2023).

In turn, `O=C(O)c1ccc2c(c1)C(=O)N(c1ccc(-c3nc4ccc(N5C(=O)c6ccc(C(=O)O)cc6C5=O)cc4[nH]3)cc1)C2=O` [FMP-201300] had a half-inhibitory concentration (IC50) in series [1] of 5.82 µM. The cytotoxic result in series [2] and in series [3] was “nor cytotoxic” each time. Also, the “Cell number (%)” value in series [2] (72 hr incubation) worked out at 100.1 ± 4.1%; in series [3] (72 hr incubation), 99.1 ± 2.8%. Moreover, the “reduction of ribosomal RNA synthesis (45S pre-rRNA transcript levels)” value in series [4] is on record as “able to recapitulate this recently reported phenotype”.

What is called IC50 is the point on the concentration scale where inhibition reaches its midpoint. Read a high IC50 as lower potency.
